Tests used:
[1] = test system: HCT116 colorectal cancer cells; test: Cisplatin Sensitization Assay (96 h cell viability MTS); assay type: cell-based; conditions: concentration of compound required to reduce the IC50 of Cisplatin alone by at least 3-fold; HCT116, 96 h MTS
Procedure: Compounds can be screened for their ability to sensitize HCT116 colorectal cancer cells to Cisplatin using a 96 h cell viability (MTS) assay. […] Compounds and Cisplatin are then both added simultaneously to the cell media in 2-fold serial dilutions from a top final concentration of 10 μM as a full matrix of concentrations in a final cell volume of 200 μl, and the cells are then incubated at 37° C. in 5% CO2. After 96 h, 40 μl of MTS reagent (Promega G358a) is added to each well and the cells are incubated for 1 h at 37° C. in 5% CO2. Finally, absorbance is measured at 490 nm using a SpectraMax Plus 384 reader (Molecular Devices) and the concentration of compound required to reduce the IC50 of Cisplatin alone by at least 3-fold (to 1 decimal place) can be reported.
Compounds with a Cisplatin sensitization value of <0.02 μM are marked with “+++.” Compounds with a Cisplatin sensitization value >0.02 μM but <0.2 μM are marked with “++.” Compounds with a Cisplatin sensitization value >0.2 μM but <5 μM are marked with “+.”

[2] = target: T1, ATR kinase (full-length ATR) (Homo sapiens, UniProt Q13535); test: ATR Inhibition Assay (radioactive-phosphate incorporation); assay type: biochemical; conditions: Ki(app); 5 nM full-length ATR, 10 μM ATP, 25° C.
T1 construct: Assays were carried out at 25° C. in the presence of 5 nM full-length ATR
Procedure: Compounds were screened for their ability to inhibit ATR kinase using a radioactive-phosphate incorporation assay. Assays were carried out in a mixture of 50 mM Tris/HCl (pH 7.5), 10 mM MgCl2 and 1 mM DTT. Final substrate concentrations were 10 μM [γ-33P]ATP (3 mCi 33P ATP/mmol ATP, Perkin Elmer) and 800 μM target peptide (ASELPASQPQPFSAKKK).
Assays were carried out at 25° C. in the presence of 5 nM full-length ATR. An assay stock buffer solution was prepared containing all of the reagents listed above, with the exception of ATP and the test compound of interest. 13.5 μL of the stock solution was placed in a 96 well plate followed by addition of 2 μL of DMSO stock containing serial dilutions of the test compound (typically starting from a final concentration of 15 μM with 3-fold serial dilutions) in duplicate (final DMSO concentration 7%). The plate was pre-incubated for 10 minutes at 25° C. and the reaction initiated by addition of 15 μL [γ-33P]ATP (final concentration 10 μM).
The reaction was stopped after 24 hours by the addition of 30 μL 0.1M phosphoric acid containing 2 mM ATP. A multiscreen phosphocellulose filter 96-well plate (Millipore, Cat no. MAPHN0B50) was pretreated with 100 μL 0.2M phosphoric acid prior to the addition of 45 μL of the stopped assay mixture. The plate was washed with 5×200PL 0.2M phosphoric acid. After drying, 100 μL Optiphase ‘SuperMix’ liquid scintillation cocktail (Perkin Elmer) was added to the well prior to scintillation counting (1450 Microbeta Liquid Scintillation Counter, Wallac).
After removing mean background values for all of the data points, Ki(app) data were calculated from non-linear regression analysis of the initial rate data using the Prism software package (GraphPad Prism version 3.0cx for Macintosh, GraphPad Software, San Diego Calif., USA).
Compounds with a Ki value of <0.01 μM are marked with “+++.” Compounds with a Ki value >0.01 μM but <1 μM are marked with “++.” Compounds with a Ki value >1 μM but <5 μM are marked with “+.”

[3] = target: T2, ATR kinase, in the presence of partner proteins ATRIP, CLK2 and TopBP1 (Homo sapiens, UniProt Q13535); test: ATR-Complex Inhibition Assay (radioactive-phosphate incorporation); assay type: biochemical; conditions: Ki(app); 4 nM full-length ATR with ATRIP, CLK2 and TopBP1(A891-S1105), 10 μM ATP, 25° C.
T2 construct: in the presence of 4 nM full-length ATR, 40 nM full-length ATRIP
Procedure: Compounds were screened for their ability to inhibit ATR kinase, in the presence of partner proteins ATRIP, CLK2 and TopBP1, using a radioactive-phosphate incorporation assay. Assays were carried out in a mixture of 50 mM Tris/HCl (pH 7.5), 10 mM MgCl2 and 1 mM DTT. Final substrate concentrations were 10 μM [g-33P]ATP (3.5 μCi 33P ATP/nmol ATP, Perkin Elmer, Massachusetts, USA) and 800 μM target peptide (ASELPASQPQPFSAKKK, Isca Biochemicals, Cambridgeshire, UK).
Assays were carried out at 25° C. in the presence of 4 nM full-length ATR, 40 nM full-length ATRIP, 40 nM full-length CLK2 and 600 nM TopBP1(A891-S1105). An enzyme stock buffer solution was prepared containing all of the reagents listed above, with the exception of target peptide, ATP and the test compound of interest. This enzyme stock was pre-incubated for 30 minutes at 25° C. 8.5 μL of the enzyme stock solution was placed in a 96-well plate followed by addition of 5 μl of target peptide and 2 μL of DMSO stock containing serial dilutions of the test compound (typically starting from a final concentration of 1.5 μM with 2.5-fold serial dilutions) in duplicate (final DMSO concentration 7%). The plate was pre-incubated for 10 minutes at 25° C. and the reaction initiated by addition of 15 μL [g-33P]ATP (final concentration 10 μM).
The reaction was stopped after […] by the addition of 30 μL 0.3 M phosphoric acid containing 2 mM ATP. A phosphocellulose filter 96-well plate (Multiscreen HTS MAPHNOB50, Merck-Millipore, Massachusetts, USA) was pretreated with 100 μL 0.1 M phosphoric acid prior to the addition of 45 μL of the stopped assay mixture. The plate was washed with 5×200 μL 0.1 M phosphoric acid. […]
After removing mean background values for all of the data points, Ki(app) data were calculated from non-linear regression analysis of the initial rate data using the Prism software package (GraphPad Prism version 6.0c for Macintosh, GraphPad Software Inc., San Diego, USA). […]

T1 sequence (Q13535 whole entry): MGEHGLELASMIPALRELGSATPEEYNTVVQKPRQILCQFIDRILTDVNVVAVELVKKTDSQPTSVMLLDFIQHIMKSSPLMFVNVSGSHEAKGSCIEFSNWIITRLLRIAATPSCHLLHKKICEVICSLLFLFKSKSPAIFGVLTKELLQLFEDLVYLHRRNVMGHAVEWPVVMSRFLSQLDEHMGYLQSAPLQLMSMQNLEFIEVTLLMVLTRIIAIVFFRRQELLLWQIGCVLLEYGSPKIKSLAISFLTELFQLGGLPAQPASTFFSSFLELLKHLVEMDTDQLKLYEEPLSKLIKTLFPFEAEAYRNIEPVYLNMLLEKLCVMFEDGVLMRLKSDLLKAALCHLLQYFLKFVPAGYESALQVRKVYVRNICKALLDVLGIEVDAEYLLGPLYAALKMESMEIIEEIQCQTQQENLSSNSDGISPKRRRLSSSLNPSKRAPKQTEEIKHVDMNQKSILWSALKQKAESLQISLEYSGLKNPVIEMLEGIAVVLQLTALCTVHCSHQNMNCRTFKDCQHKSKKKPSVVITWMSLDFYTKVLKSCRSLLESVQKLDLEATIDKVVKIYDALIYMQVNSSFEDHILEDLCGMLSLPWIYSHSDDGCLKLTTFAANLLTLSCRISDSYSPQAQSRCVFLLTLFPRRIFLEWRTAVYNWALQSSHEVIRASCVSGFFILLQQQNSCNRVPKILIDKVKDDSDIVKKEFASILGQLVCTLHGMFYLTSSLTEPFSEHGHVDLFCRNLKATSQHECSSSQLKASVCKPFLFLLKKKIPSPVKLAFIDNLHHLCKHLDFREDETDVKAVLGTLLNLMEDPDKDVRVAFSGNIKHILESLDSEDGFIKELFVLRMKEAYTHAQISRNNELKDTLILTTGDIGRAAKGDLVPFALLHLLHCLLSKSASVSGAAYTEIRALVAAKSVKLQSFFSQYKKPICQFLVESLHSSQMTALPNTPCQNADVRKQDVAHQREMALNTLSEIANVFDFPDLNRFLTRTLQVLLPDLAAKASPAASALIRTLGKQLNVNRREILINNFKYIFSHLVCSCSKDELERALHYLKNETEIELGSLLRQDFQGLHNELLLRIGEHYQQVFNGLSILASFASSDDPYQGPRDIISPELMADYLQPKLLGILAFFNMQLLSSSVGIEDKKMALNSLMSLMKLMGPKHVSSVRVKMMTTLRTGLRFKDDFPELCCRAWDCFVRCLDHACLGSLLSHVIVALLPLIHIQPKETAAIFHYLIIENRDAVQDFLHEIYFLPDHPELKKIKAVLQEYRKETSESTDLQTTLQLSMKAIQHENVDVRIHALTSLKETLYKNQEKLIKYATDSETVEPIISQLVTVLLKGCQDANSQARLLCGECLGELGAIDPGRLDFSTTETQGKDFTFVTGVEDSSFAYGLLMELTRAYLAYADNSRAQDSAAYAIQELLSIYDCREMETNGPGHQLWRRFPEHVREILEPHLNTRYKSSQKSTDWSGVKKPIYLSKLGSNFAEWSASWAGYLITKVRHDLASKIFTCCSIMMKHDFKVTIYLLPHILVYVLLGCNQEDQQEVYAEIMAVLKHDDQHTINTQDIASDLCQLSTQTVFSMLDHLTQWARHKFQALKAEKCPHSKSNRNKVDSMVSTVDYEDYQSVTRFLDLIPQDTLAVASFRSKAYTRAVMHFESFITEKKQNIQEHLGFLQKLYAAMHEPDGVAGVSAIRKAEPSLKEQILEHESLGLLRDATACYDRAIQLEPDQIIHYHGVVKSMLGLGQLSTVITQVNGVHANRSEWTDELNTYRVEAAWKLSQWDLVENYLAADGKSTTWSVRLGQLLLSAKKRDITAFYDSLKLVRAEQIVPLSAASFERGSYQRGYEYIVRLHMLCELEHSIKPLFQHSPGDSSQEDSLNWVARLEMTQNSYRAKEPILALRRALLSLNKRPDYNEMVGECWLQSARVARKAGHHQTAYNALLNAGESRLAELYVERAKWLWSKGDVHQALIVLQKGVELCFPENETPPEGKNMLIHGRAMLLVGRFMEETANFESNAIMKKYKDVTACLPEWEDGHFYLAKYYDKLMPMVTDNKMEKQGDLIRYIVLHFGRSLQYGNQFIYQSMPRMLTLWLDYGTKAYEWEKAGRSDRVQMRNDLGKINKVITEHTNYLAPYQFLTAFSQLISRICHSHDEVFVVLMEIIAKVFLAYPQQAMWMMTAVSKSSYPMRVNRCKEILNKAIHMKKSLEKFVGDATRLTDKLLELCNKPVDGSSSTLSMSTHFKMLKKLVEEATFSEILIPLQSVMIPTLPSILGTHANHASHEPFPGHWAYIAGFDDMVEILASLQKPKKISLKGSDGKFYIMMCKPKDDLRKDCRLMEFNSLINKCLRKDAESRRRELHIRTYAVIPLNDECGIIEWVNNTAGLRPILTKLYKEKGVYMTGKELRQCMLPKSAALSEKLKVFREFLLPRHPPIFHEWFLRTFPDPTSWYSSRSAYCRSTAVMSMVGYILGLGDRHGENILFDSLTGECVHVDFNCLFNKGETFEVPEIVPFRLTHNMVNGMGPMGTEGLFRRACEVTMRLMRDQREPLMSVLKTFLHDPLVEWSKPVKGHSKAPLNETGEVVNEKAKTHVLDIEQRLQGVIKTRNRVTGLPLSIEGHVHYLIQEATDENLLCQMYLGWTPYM
T2 sequence (Q13535 whole entry): as above
T2 sequence (Q8WXE1 whole entry partner): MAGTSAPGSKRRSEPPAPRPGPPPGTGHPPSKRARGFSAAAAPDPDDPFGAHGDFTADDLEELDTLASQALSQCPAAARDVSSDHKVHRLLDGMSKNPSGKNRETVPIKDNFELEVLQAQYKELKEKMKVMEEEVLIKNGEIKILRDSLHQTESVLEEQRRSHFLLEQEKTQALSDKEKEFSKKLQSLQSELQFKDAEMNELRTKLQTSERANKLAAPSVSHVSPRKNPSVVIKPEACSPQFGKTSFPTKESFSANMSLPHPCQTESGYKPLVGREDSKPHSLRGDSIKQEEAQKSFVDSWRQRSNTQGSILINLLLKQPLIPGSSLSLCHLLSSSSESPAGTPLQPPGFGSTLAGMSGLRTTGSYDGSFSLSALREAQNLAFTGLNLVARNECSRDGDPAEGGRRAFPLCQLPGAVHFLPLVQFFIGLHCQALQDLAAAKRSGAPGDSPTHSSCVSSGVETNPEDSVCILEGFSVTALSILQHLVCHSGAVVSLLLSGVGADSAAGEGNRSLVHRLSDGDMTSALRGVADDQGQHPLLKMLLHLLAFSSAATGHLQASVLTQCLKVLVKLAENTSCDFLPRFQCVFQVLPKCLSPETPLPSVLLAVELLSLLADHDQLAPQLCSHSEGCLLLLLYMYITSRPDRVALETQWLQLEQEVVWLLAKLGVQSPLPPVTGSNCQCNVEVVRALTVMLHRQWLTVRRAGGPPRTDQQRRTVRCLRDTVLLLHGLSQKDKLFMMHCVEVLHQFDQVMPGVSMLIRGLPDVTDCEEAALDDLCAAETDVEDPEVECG
T2 sequence (Q92547 978-1192 partner limits assumed): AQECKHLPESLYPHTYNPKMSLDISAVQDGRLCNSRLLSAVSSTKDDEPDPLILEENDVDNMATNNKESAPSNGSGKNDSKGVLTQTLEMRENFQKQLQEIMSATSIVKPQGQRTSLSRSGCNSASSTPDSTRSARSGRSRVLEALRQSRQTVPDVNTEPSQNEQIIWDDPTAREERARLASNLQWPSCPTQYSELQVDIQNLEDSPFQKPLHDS

Compound	Cisplatin Sensitization Assay [1]	Ki [2] [nM]	Ki [3] [nM]
CN1CCC(Oc2ccncc2NC(=O)c2c(N)nc3cccnn23)CC1 [I-A-1, 2-amino-N-(4-((1-methylpiperidin-4-yl)oxy)pyridin-3-yl)imidazo[1,2-b]pyridazine-3-carboxamide]	++ (Compounds with a Cisplatin sensitization value >0.02 μM but <0.2 μM)	10 to 1000	< 10
CN1CCC(Oc2ccncc2NC(=O)c2c(N)nc3ccc(C(F)(F)F)nn23)CC1 [I-A-2, 2-amino-N-(4-((1-methylpiperidin-4-yl)oxy)pyridin-3-yl)-6-(trifluoromethyl)imidazo[1,2-b]pyridazine-3-carboxamide]	++ (Compounds with a Cisplatin sensitization value >0.02 μM but <0.2 μM)	10 to 1000	–
CN1CCN(C(=O)C2CCN(c3c(F)cncc3NC(=O)c3c(N)nc4cccnn34)CC2)CC1 [I-A-3, 2-amino-N-(5-fluoro-4-(4-(4-methylpiperazine-1-carbonyl)piperidin-1-yl)pyridin-3-yl)imidazo[1,2-b]pyridazine-3-carboxamide]	+++ (Compounds with a Cisplatin sensitization value of <0.02 μM)	10 to 1000	–
CCOc1ccncc1NC(=O)c1c(N)nn2ccccc12 [I-B-1, 2-amino-N-(4-ethoxypyridin-3-yl)pyrazolo[1,5-a]pyridine-3-carboxamide]	+++ (Compounds with a Cisplatin sensitization value of <0.02 μM)	10 to 1000	< 10
CN1CCN(C(=O)C2CCN(c3c(F)cncc3NC(=O)c3c(N)nn4ccccc34)CC2)CC1 [I-B-3, 2-amino-N-(5-fluoro-4-(4-(4-methylpiperazine-1-carbonyl)piperidin-1-yl)pyridin-3-yl)pyrazolo[1,5-a]pyridine-3-carboxamide]	+ (Compounds with a Cisplatin sensitization value >0.2 μM but <5 μM)	1000 to 5000	< 10

Reference: patent US20150158868A1, “COMPOUNDS USEFUL AS INHIBITORS OF ATR KINASE” (Vertex Pharmaceuticals Incorporated, priority 2013, published 2015)
